Laboratory results taken from EP4342487A2, “PHARMACEUTICAL COMPOSITION COMPRISING GIP DERIVATIVE OR LONG-ACTING CONJUGATE THEREOF FOR PREVENTING OR TREATING PULMONARY DISEASE” (Hanmi Pharm. Co., Ltd., priority 2021, dated 2022).

Legend:
Assay type in all cases: cell-based, human
THP-1 cell line [1] = assay: Inflammation-related cytokines in the medium of PMA and LPS-induced THP-1 cells (ELISA); conditions: THP-1, 150 nm PMA and 0.1 µg/mL LPS, native GIP 1 µM, long-acting GIP derivative 0.1 µM or 1 µM, FIG. 2B
Description: Additionally, in order to measure the concentrations of the inflammation-related cytokines IL-6, IL-12/23 p40, IL-1β, and TNF-α in the medium of the THP-1 cell line, 150 nm of phorbol 12-myristate 13-acetate (PMA) and 0.1 µg/mL of LPS were added thereto to induce an inflammatory reaction, and the cells were treated with the native GIP and the long-acting GIP derivative: the native GIP was used at a concentration of 1 µM and the long-acting GIP derivative was diluted to a concentration of 0.1 µM or 1 µM. As the medium, Human IL-6 ELISA Kit (Abcam, US), Human IL-12/23 p40 ELISA Kit (Abcam, US), Human IL-1beta ELISA Kit (Abcam, US), and Human TNF alpha ELISA Kit (Abcam, US)were used for quantification.

THP-1 cell line [2] = assay: Anti-inflammatory effect in LPS-induced THP-1 cells, mRNA level (qPCR); conditions: THP-1, 1 µg/mL LPS; native GIP 10 µM, long-acting GIP derivative 1 or 10 µM; FIG. 2A
Description: To confirm the anti-inflammatory effect of the long-acting GIP derivative on COPD in vitro, a human monocyte/macrophage cell line, THP-1, was used. Macrophages are known to induce the progression of inflammation by secreting cytokines and chemokines at the initial stage of infection and mobilizing other immune cells.
The THP-1 cell line was cultured in a RPMI 1640 medium supplemented with 10% fetal bovine serum (FBS), 100 µg/mL streptomycin, 100 U/mL penicillin, and 0.05 mM β-mercaptoethanol, at a temperature of 37 °C in 5% carbon dioxide conditions. An inflammatory response was induced by adding 1 µg/mL of lipopolysaccharide (LPS) to the cell line, and the effect on the inflammatory response by LPS when treated with native GIP and long-acting GIP derivatives was confirmed at the mRNA level. The native GIP was added at the concentration 10 µM, and the long-acting GIP derivative was diluted at a concentration of 1 or 10 µM and added. As the long-acting GIP derivative, the long-acting GIP conjugate (SEQ ID NO: 17) prepared in Example 3 was used.
RNA was isolated from the THP-1 cell line after the treatment was completed by using the RNeasy Mini Kit (Qiagen, US), and cDNA was synthesized using the iScript™ cDNA Synthesis Kit (Bio-rad, US). […]

A549 cell line = assay: Inflammation and EMT in A549 cells treated with TGF-β1 and LPS (qPCR); conditions: native GIP 10 µM, long-acting GIP derivative 1 or 10 µM
Description: The A549 cell line, a human alveolar epithelial cell, was used to confirm the inflammatory and fibrosis amelioration effect of long-acting GIP derivatives on COPD in vitro. The purpose of this experiment was to determine the effect of alveolar epithelial cells on epithelial mesenchymal transition (EMT), which is known to be important in the pulmonary fibrosis process.
The A549 cell line was cultured in a F-12K medium supplemented with 10% fetal bovine serum (FBS), 100 µg/mL streptomycin, and 100 U/mL penicillin at a temperature of 37 °C and in 5% carbon dioxide conditions. Cell lines were sequentially treated with TGF-β1 and LPS to induce inflammatory responses and EMT. The native GIP was added at the concentration 10 µM, and the long-acting GIP derivative was diluted at a concentration of 1 or 10 µM and added. As the long-acting GIP derivative, the long-acting GIP conjugate (SEQ ID NO: 17) prepared in Example 3 was used.
RNA was isolated from the A549 cell line after the treatment was completed by using the RNeasy Mini Kit (Qiagen, US), and cDNA was synthesized using the iScript™ cDNA Synthesis Kit (Bio-rad, US). Regarding the synthesized cDNA, the expression level of inflammation and EMT-related genes was confirmed by using the QuantStudio 6 Flex Real-Time PCR System (Applied Biosystems, US). Delta Delta Ct method was used, and beta-actin was used as a housekeeping gene. […]

native GIP: hormone composed of 42 amino acids secreted from the K cells of the small intestine (YAEGTFISDYSIAMDKIHQQDFVNWLLAQKGKKNDWKHNITQ; Gastric inhibitory polypeptide; UniProt P09681 52-93, looked up)
concentrations of the inflammation-related cytokines IL-6, IL-12/23 p40, IL-1β, and TNF-α in the medium (THP-1 cell line [1]): decreased
relative expression levels of inflammation-related genes IL-6, IL-12, IL-1β, and TNF-α (THP-1 cell line [2]): decreased
relative expression levels of inflammation-related genes IL-6, IL-12, and TNF-α (A549 cell line; FIG. 3A): significantly decreased
relative expression levels of EMT marker fibronectin, Col1α1, and Col3α1 (A549 cell line; FIG. 3B): decreased
